Measurements published in paper PMC7179653 (Antimicrobial Agents and Chemotherapy, 2020).
Where two headings read alike, the source gives them in different places.

Key:
[1] = MAD study: nacubactam pharmacokinetics, multiple doses and single dose alone or with meropenem; format: in vivo, human; details: for CL renal at 7 days / CL renal: plasma and urine; for AUC(0-t): read-out: AUC0–8h; for Tmax at 7 days: day 7, n = 6, median (range)
Description: The MAD study consisted of three parts (Fig. 1). […] Participants were enrolled in two sequential cohorts (cohort 1, followed by cohort 2). […] Participants were also enrolled in two sequential cohorts (cohort 3, followed by cohort 4). […] A washout period of approximately 24 h between treatments was provided. Study treatments were administered as 30-min (SAD study) or 90-min (MAD study) i.v. infusions, the latter to investigate the pharmacokinetics using a longer infusion time, which is commonly used to increase the time above the MIC of β-lactams ([15]). The choice of a 90-min infusion time for the MAD study was dictated by the stability and toxicology data available at the time the study was being designed. […] Safety assessments included monitoring of AEs, laboratory safety tests (hematology, serum chemistry, and urinalysis), 12-lead ECG (discrete recordings and 24-h Holter recording), and vital signs (blood pressure, pulse rate, and body temperature). In the SAD study, safety assessments were performed predose at screening, at day 1, postdose periodically on days 1, 2, and 7 (follow-up), and at early withdrawal, if relevant. […] In the MAD study, safety assessments were done predose at screening, at day 2, postdose periodically on days 1, 2, 4, 7, and 8, on days 13 to 15 (follow-up), and at early withdrawal, if relevant. […] On all other days, a single predose sample was collected for pharmacokinetic evaluation prior to the morning infusion. Blood was collected into lithium-heparin tubes and stored at a nominal –80°C temperature until analysis.

[2] = set-up: method as in unpublished data; details: ref unpublished data; cited from earlier work
[3] = SAD study: single-dose nacubactam pharmacokinetics (plasma/urine, LC-MS/MS, noncompartmental); format: in vivo; details: human, iv; for AUC(0-inf) / AUC(0-t) / Cmax / Tmax / k el / clearance / Vd / half-life: plasma
Description: Study treatments were administered as 30-min (SAD study) or 90-min (MAD study) i.v. infusions, the latter to investigate the pharmacokinetics using a longer infusion time, which is commonly used to increase the time above the MIC of β-lactams ([15]). The choice of a 90-min infusion time for the MAD study was dictated by the stability and toxicology data available at the time the study was being designed. […] Safety assessments included monitoring of AEs, laboratory safety tests (hematology, serum chemistry, and urinalysis), 12-lead ECG (discrete recordings and 24-h Holter recording), and vital signs (blood pressure, pulse rate, and body temperature). In the SAD study, safety assessments were performed predose at screening, at day 1, postdose periodically on days 1, 2, and 7 (follow-up), and at early withdrawal, if relevant. […] In the MAD study, safety assessments were done predose at screening, at day 2, postdose periodically on days 1, 2, 4, 7, and 8, on days 13 to 15 (follow-up), and at early withdrawal, if relevant. […] On all other days, a single predose sample was collected for pharmacokinetic evaluation prior to the morning infusion. Blood was collected into lithium-heparin tubes and stored at a nominal –80°C temperature until analysis.

[4] = MAD part 3, single dose (day 1 or 2) nacubactam 2,000 mg alone, geometric mean (%CV)
[5] = MAD part 3, single dose (day 3) nacubactam 2,000 mg plus meropenem 2,000 mg, geometric mean (%CV)
[6] = human, plasma, intravenous, 1000 mg, MAD part 1, 1,000 mg q8h for 7 days, day 7, n = 6, geometric mean (%CV)
[7] = human, plasma, intravenous, 2000 mg
[8] = human, plasma, intravenous, 2000 mg, MAD part 1, 2,000 mg q8h for 7 days, day 7, n = 6, geometric mean (%CV)
[9] = human, plasma, intravenous, 2000 mg, MAD part 3, single dose (day 1 or 2) nacubactam 2,000 mg alone, geometric mean (%CV)
[10] = human, plasma, intravenous, 4000 mg, MAD part 2, 4,000 mg q8h for 7 days, day 9, n = 6, geometric mean (%CV)
[11] = human, plasma, intravenous, MAD part 3, single dose (day 3) nacubactam 2,000 mg plus meropenem 2,000 mg, geometric mean (%CV)
[12] = 1000 mg, single i.v. dose 1,000 mg, n = 6, mean (SD)
[13] = 2000 mg, single i.v. dose 2,000 mg, n = 6, mean (SD)
[14] = single i.v. dose 50 mg, n = 6, mean (SD)
[15] = single i.v. dose 150 mg, n = 6, mean (SD)
[16] = single i.v. dose 500 mg, n = 6, mean (SD)

NCCONC(=O)[C@@H]1CC[C@@H]2CN1C(=O)N2OS(=O)(=O)O [Nacubactam]
Fe%0–8h (cumulative percentage of dose excreted in urine from time zero to 8 h) ([1]; MAD part 1, 1,000 mg q8h for 7 days, day 7, n = 6, geometric mean (%CV)): 81.9 (1) % | Fe%0–8h (cumulative percentage of dose excreted in urine from time zero to 8 h) ([1]; MAD part 1, 2,000 mg q8h for 7 days, day 7, n = 6, geometric mean (%CV)): 87.0 (11) % | Fe%0–8h (cumulative percentage of dose excreted in urine from time zero to 8 h) ([1]; MAD part 2, 4,000 mg q8h for 7 days, day 9, n = 6, geometric mean (%CV)): 83.9 (9) % | Fe%0–8h (cumulative percentage of dose excreted in urine from time zero to 8 h) [1, 4]: 85.5 (13) % | Fe%0–24h (cumulative percentage of dose excreted in urine from time zero to 24 h) [1, 4]: 91.1 (10) % | Fe%0–8h (cumulative percentage of dose excreted in urine from time zero to 8 h) [1, 5]: 82.7 (12) % | Fe%0–24h (cumulative percentage of dose excreted in urine from time zero to 24 h) [1, 5]: 88.4 (11) % | accumulation in plasma ([1]; following 7 days of q8h dosing): minimal accumulation | route of elimination ([1]; following single and multiple doses): excreted largely unchanged into urine | contribution of nonrenal elimination processes on clearance ([1]; from difference between CL and CLR): < 20% | CL renal at 7 days ([1]; human, intravenous, 1000 mg, MAD part 1, 1,000 mg q8h for 7 days, day 7, n = 6, geometric mean (%CV)): 112 mL/min | CL renal at 7 days ([1]; human, intravenous, 2000 mg, MAD part 1, 2,000 mg q8h for 7 days, day 7, n = 6, geometric mean (%CV)): 104 mL/min | CL renal ([1]; human, intravenous, 2000 mg, MAD part 3, single dose (day 1 or 2) nacubactam 2,000 mg alone, geometric mean (%CV), read-out: CLR (converted)): 142 mL/min | CL renal at 7 days ([1]; human, intravenous, 4000 mg, MAD part 2, 4,000 mg q8h for 7 days, day 9, n = 6, geometric mean (%CV)): 113 mL/min | CL renal ([1]; human, intravenous, MAD part 3, single dose (day 3) nacubactam 2,000 mg plus meropenem 2,000 mg, geometric mean (%CV), read-out: CLR (converted)): 135 mL/min | CL renal ([1]; human, intravenous, single (1,000 to 8,000 mg) and multiple (1,000 to 4,000 mg) doses, read-out: estimated CLR, range): 91.7 to 142 mL/min | Cmax at 7 days [1, 6]: 36.6 µg/mL | half-life [1, 6]: 2.66 h | AUC(0-t) [1, 6]: 118 µg·h/mL | clearance ([1]; human, plasma, intravenous, 1000 mg, MAD part 1, 1,000 mg q8h for 7 days, day 7, n = 6, geometric mean (%CV), read-out: CL (converted)): 142 mL/min | Vd at 7 days ([1]; human, plasma, intravenous, 1000 mg, MAD part 1, 1,000 mg q8h for 7 days, day 7, n = 6, geometric mean (%CV), read-out: Vss): 21.9 L | Tmax at 7 days ([1]; human, plasma, intravenous, 1000 mg, MAD part 1, 1,000 mg q8h for 7 days): 1 h | AUC(0-inf) [1, 7]: 225 µg·h/mL | Cmax [1, 7]: 66 µg/mL | Tmax [1, 7]: 1 h | Cmax at 7 days [1, 8]: 89.6 µg/mL | half-life [1, 8]: 2.66 h | AUC(0-t) [1, 8]: 279 µg·h/mL | clearance ([1]; human, plasma, intravenous, 2000 mg, MAD part 1, 2,000 mg q8h for 7 days, day 7, n = 6, geometric mean (%CV), read-out: CL (converted)): 119 mL/min | Vd at 7 days ([1]; human, plasma, intravenous, 2000 mg, MAD part 1, 2,000 mg q8h for 7 days, day 7, n = 6, geometric mean (%CV), read-out: Vss): 16.5 L | half-life [1, 9]: 2.63 h | AUC(0-t) [1, 9]: 201 µg·h/mL | clearance ([1]; human, plasma, intravenous, 2000 mg, MAD part 3, single dose (day 1 or 2) nacubactam 2,000 mg alone, geometric mean (%CV), read-out: CL (converted)): 148 mL/min | Tmax at 7 days ([1]; human, plasma, intravenous, 2000 mg, MAD part 1, 2,000 mg q8h for 7 days): 1.33 h | Vd ([1]; human, plasma, intravenous, 2000 mg, read-out: Vss): 26.2 L | Cmax at 7 days [1, 10]: 179 µg/mL | half-life [1, 10]: 2.69 h | AUC(0-t) [1, 10]: 496 µg·h/mL | clearance ([1]; human, plasma, intravenous, 4000 mg, MAD part 2, 4,000 mg q8h for 7 days, day 9, n = 6, geometric mean (%CV), read-out: CL (converted)): 134 mL/min | Vd at 7 days ([1]; human, plasma, intravenous, 4000 mg, MAD part 2, 4,000 mg q8h for 7 days, day 9, n = 6, geometric mean (%CV), read-out: Vss): 20.1 L | half-life [1, 11]: 2.38 h | AUC(0-t) [1, 11]: 204 µg·h/mL | clearance ([1]; human, plasma, intravenous, MAD part 3, single dose (day 3) nacubactam 2,000 mg plus meropenem 2,000 mg, geometric mean (%CV), read-out: CL (converted)): 149 mL/min | clearance ([1]; human, plasma, intravenous, single (1,000 to 8,000 mg) and multiple (1,000 to 4,000 mg) doses, read-out: estimated CL, range on average): 120 to 148 mL/min | fraction unbound [2]: 0.98 | protein binding [2]: 2% | CL renal ([3]; plasma and urine, single i.v. doses, 6.86 ± 0.64 to 9.66 ± 1.66, read-out: mean CLR (renal clearance), range over the five dose levels): 114 to 161 mL/min | AUC(0-inf) [3, 12]: 143 µg·h/mL | AUC(0-t) [3, 12]: 142 µg·h/mL | Cmax [3, 12]: 72 µg/mL | Tmax [3, 12]: 0.5 h | k el [3, 12]: 9.72e-05 s⁻¹ | clearance ([3]; 1000 mg, single i.v. dose 1,000 mg, n = 6, mean (SD), read-out: CL (converted)): 117 mL/min | Vd ([3]; 1000 mg, single i.v. dose 1,000 mg, n = 6, mean (SD), read-out: Vss): 17 L | half-life ([3]; 1000 mg, single i.v. dose 1,000 mg, n = 6, mean (SD), read-out: t1/2 (converted)): 2.05 h | AUC(0-inf) [3, 13]: 229 µg·h/mL | AUC(0-t) [3, 13]: 229 µg·h/mL | Cmax [3, 13]: 112 µg/mL | Tmax [3, 13]: 0.5 h | k el [3, 13]: 8.61e-05 s⁻¹ | clearance ([3]; 2000 mg, single i.v. dose 2,000 mg, n = 6, mean (SD), read-out: CL (converted)): 146 mL/min | Vd ([3]; 2000 mg, single i.v. dose 2,000 mg, n = 6, mean (SD), read-out: Vss): 20.6 L | half-life ([3]; 2000 mg, single i.v. dose 2,000 mg, n = 6, mean (SD), read-out: t1/2 (converted)): 2.36 h | AUC(0-inf) [3, 14]: 5.21 µg·h/mL | AUC(0-t) [3, 14]: 5.08 µg·h/mL | Cmax [3, 14]: 2.69 µg/mL | Tmax [3, 14]: 0.54 h | k el [3, 14]: 0.000106 s⁻¹ | clearance ([3]; single i.v. dose 50 mg, n = 6, mean (SD), read-out: CL (converted)): 164 mL/min | Vd ([3]; single i.v. dose 50 mg, n = 6, mean (SD), read-out: Vss): 22.4 L | half-life ([3]; single i.v. dose 50 mg, n = 6, mean (SD), read-out: t1/2 (converted)): 1.83 h | AUC(0-inf) [3, 15]: 16.3 µg·h/mL | AUC(0-t) [3, 15]: 16.1 µg·h/mL | Cmax [3, 15]: 9.02 µg/mL | Tmax [3, 15]: 0.5 h | k el [3, 15]: 0.000111 s⁻¹ | clearance ([3]; single i.v. dose 150 mg, n = 6, mean (SD), read-out: CL (converted)): 157 mL/min | Vd ([3]; single i.v. dose 150 mg, n = 6, mean (SD), read-out: Vss): 20.2 L | half-life ([3]; single i.v. dose 150 mg, n = 6, mean (SD), read-out: t1/2 (converted)): 1.76 h | AUC(0-inf) [3, 16]: 53.9 µg·h/mL | AUC(0-t) [3, 16]: 53.6 µg·h/mL | Cmax [3, 16]: 31.3 µg/mL | Tmax [3, 16]: 0.5 h | k el [3, 16]: 0.000108 s⁻¹ | clearance ([3]; single i.v. dose 500 mg, n = 6, mean (SD), read-out: CL (converted)): 156 mL/min | Vd ([3]; single i.v. dose 500 mg, n = 6, mean (SD), read-out: Vss): 19.6 L | half-life ([3]; single i.v. dose 500 mg, n = 6, mean (SD), read-out: t1/2 (converted)): 1.77 h | clearance ([3]; single i.v. doses 50 to 2,000 mg, read-out: mean CL, range across doses): 117 to 164 mL/min | Vd ([3]; single i.v. doses 50 to 2,000 mg, read-out: mean Vss, range across doses): 17 to 22.4 L | half-life ([3]; single i.v. doses, 1.76 ± 0.17 to 2.36 ± 0.46, read-out: mean apparent terminal elimination half-life (t1/2), range across doses): 1.76 to 2.36 h
